Measured values taken from paper PMC9090415, “Discovery of small molecule inhibitors of Plasmodium falciparum apicoplast DNA polymerase” (Journal of Enzyme Inhibition and Medicinal Chemistry, 2022).

Target: T1, bacteriophage T4 DNA polymerase (Enterobacteria phage T4, UniProt P04415)
T1 construct: made in house
T1 sequence (P04415 1-898): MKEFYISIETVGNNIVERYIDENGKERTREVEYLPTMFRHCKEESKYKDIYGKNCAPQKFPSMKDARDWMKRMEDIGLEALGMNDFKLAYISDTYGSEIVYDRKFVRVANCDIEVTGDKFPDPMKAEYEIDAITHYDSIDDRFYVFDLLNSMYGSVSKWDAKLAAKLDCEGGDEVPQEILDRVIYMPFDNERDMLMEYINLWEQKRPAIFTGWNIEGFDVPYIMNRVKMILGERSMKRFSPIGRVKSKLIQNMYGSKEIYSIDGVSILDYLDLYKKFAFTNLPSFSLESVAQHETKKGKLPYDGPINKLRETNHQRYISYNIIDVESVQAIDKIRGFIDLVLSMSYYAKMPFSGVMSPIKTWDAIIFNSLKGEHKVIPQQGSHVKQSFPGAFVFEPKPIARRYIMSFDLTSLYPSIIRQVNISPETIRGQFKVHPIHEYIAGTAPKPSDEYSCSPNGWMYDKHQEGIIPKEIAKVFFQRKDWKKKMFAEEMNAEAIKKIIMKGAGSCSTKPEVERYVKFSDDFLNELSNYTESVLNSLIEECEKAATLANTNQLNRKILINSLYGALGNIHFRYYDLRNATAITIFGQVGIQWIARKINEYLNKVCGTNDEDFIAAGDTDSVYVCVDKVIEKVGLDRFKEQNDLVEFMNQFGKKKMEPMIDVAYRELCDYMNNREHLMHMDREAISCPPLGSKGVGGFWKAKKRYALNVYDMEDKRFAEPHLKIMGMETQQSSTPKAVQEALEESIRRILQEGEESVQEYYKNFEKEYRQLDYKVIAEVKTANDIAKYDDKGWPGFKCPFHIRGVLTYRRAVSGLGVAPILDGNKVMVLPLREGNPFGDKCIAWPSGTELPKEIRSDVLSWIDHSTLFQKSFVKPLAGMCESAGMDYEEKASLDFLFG
Assay: Counter-screen against bacteriophage T4 DNA polymerase
Assay type: biochemical
Details: for % inhibition T4 10' 2.5 / % inhibition T4 10' 5 / % inhibition T4 10' 10 / % inhibition T4 10' 20 / % inhibition T4 10' 40 / % inhibition T4 10' 80: read at 10'; for % inhibition T4 70' 2.5 / % inhibition T4 70' 5 / % inhibition T4 70' 10 / % inhibition T4 70' 20 / % inhibition T4 70' 40 / % inhibition T4 70' 80: read at 70'; for % inhibition T4 130' 2.5 / % inhibition T4 130' 5 / % inhibition T4 130' 10 / % inhibition T4 130' 20 / % inhibition T4 130' 40 / % inhibition T4 130' 80: read at 130'; for % inhibition T4 40' 2.5 / % inhibition T4 40' 5 / % inhibition T4 40' 10 / % inhibition T4 40' 20 / % inhibition T4 40' 40 / % inhibition T4 40' 80: read at 40'; for % inhibition T4 90' 2.5 / % inhibition T4 90' 5 / % inhibition T4 90' 10 / % inhibition T4 90' 20 / % inhibition T4 90' 40 / % inhibition T4 90' 80: read at 90'; for % inhibition T4 180' 2.5 / % inhibition T4 180' 5 / % inhibition T4 180' 10 / % inhibition T4 180' 20 / % inhibition T4 180' 40 / % inhibition T4 180' 80: read at 180'
Description: Codon-optimized, exonuclease-deficient Pf-apPOL was overexpressed in E. coli BL21 (DE3) and purified as described. The protein was dialysed against two, 1-liter changes of 20 mM Tris-HCl (pH 8.0), 400 mM NaCl, and 20% glycerol. Plasmodium bergei and Babesia bovis apPOLs (Pb-apPOL and Bb-apPOL, respectively) were codon-optimized, expressed, and purified as for Pf-apPOL[15]. Bacteriophage T4 DNA polymerase was purified as described. The DNA oligonucleotides used to make the high-throughput substrate were obtained from Integrated DNA Technologies. Deoxynucleotides were purchased from Strategene. All other materials came from Fisher Scientific.
Each compound was tested in a dose-response format to determine IC50 values. […] T4 DNA polymerase can be produced in large quantities, and is in the same family (B-family) as the replicative human DNA polymerases (α, δ, and ε)[20].

SMILES: O=C1C(=Cc2ccccc2O)Oc2ccc(O)cc21 [KU0196475]
- % inhibition T4 10' (DRC-2, concentration 80): 34%
- % inhibition T4 40' (DRC-2, concentration 2.5): 10%
- % inhibition T4 40' (DRC-2, concentration 5): 10%
- % inhibition T4 40' (DRC-2, concentration 10): 21%
- % inhibition T4 90' (DRC-2, concentration 10): 21%
- % inhibition T4 90' (DRC-2, concentration 40): 34%

SMILES: Cc1cccc(-c2noc(C(=O)NNC(=O)C(Cl)(Cl)Cl)n2)c1 [KU0266208]
- % inhibition T4 10' 2.5 (DRC-1, concentration 2.5): 1.001%
- % inhibition T4 10' 5 (DRC-1, concentration 5): -2.3946%
- % inhibition T4 10' 10 (DRC-1, concentration 10): 2.959%
- % inhibition T4 10' 20 (DRC-1, concentration 20): 3.222%
- % inhibition T4 10' 40 (DRC-1, concentration 40): 8.397%
- % inhibition T4 10' 80 (DRC-1, concentration 80): 7.879%
- % inhibition T4 70' 2.5 (DRC-1, concentration 2.5): 1.555%
- % inhibition T4 70' 5 (DRC-1, concentration 5): -1.004%
- % inhibition T4 70' 10 (DRC-1, concentration 10): 1.596%
- % inhibition T4 70' 20 (DRC-1, concentration 20): 0.3208%
- % inhibition T4 70' 40 (DRC-1, concentration 40): 4.827%
- % inhibition T4 70' 80 (DRC-1, concentration 80): 4.906%
- % inhibition T4 130' 2.5 (DRC-1, concentration 2.5): -1.03%
- % inhibition T4 130' 5 (DRC-1, concentration 5): -3.982%
- % inhibition T4 130' 10 (DRC-1, concentration 10): -1.107%
- % inhibition T4 130' 20 (DRC-1, concentration 20): -3.27%
- % inhibition T4 130' 40 (DRC-1, concentration 40): 2.252%
- % inhibition T4 130' 80 (DRC-1, concentration 80): 3.008%
- % inhibition T4 10' 2.5 (DRC-2, concentration 2.5): 7%
- % inhibition T4 10' 5 (DRC-2, concentration 5): -1.26%
- % inhibition T4 10' 10 (DRC-2, concentration 10): -5%
- % inhibition T4 10' 20 (DRC-2, concentration 20): -8%
- % inhibition T4 10' 40 (DRC-2, concentration 40): -12%
- % inhibition T4 10' 80 (DRC-2, concentration 80): -4.34%
- % inhibition T4 40' 2.5 (DRC-2, concentration 2.5): 7%
- % inhibition T4 40' 5 (DRC-2, concentration 5): -1.26%
- % inhibition T4 40' 10 (DRC-2, concentration 10): -5%
- % inhibition T4 40' 20 (DRC-2, concentration 20): -8%
- % inhibition T4 40' 40 (DRC-2, concentration 40): -12%
- % inhibition T4 40' 80 (DRC-2, concentration 80): -4.34%
- % inhibition T4 90' 2.5 (DRC-2, concentration 2.5): 7%
- % inhibition T4 90' 5 (DRC-2, concentration 5): -1.21%
- % inhibition T4 90' 10 (DRC-2, concentration 10): -5%
- % inhibition T4 90' 20 (DRC-2, concentration 20): -8%
- % inhibition T4 90' 40 (DRC-2, concentration 40): -10%
- % inhibition T4 90' 80 (DRC-2, concentration 80): -1.44%
- % inhibition T4 180' 2.5 (DRC-2, concentration 2.5): 1.78%
- % inhibition T4 180' 5 (DRC-2, concentration 5): -5.37%
- % inhibition T4 180' 10 (DRC-2, concentration 10): -9%
- % inhibition T4 180' 20 (DRC-2, concentration 20): -11%
- % inhibition T4 180' 40 (DRC-2, concentration 40): -9%
- % inhibition T4 180' 80 (DRC-2, concentration 80): 0.715%

SMILES: Cc1nc(C)c2c(n1)N(CC1CCCCC1)C(=O)CC2 [KU0218606]
- % inhibition T4 10' 2.5 (DRC-1, concentration 2.5): -4.605%
- % inhibition T4 10' 5 (DRC-1, concentration 5): -3.989%
- % inhibition T4 10' 10 (DRC-1, concentration 10): -2.764%
- % inhibition T4 10' 20 (DRC-1, concentration 20): -3.758%
- % inhibition T4 10' 40 (DRC-1, concentration 40): -2.983%
- % inhibition T4 10' 80 (DRC-1, concentration 80): -2.366%
- % inhibition T4 70' 2.5 (DRC-1, concentration 2.5): -6.824%
- % inhibition T4 70' 5 (DRC-1, concentration 5): -8.391%
- % inhibition T4 70' 10 (DRC-1, concentration 10): -4.959%
- % inhibition T4 70' 20 (DRC-1, concentration 20): -8.03%
- % inhibition T4 70' 40 (DRC-1, concentration 40): -3.675%
- % inhibition T4 70' 80 (DRC-1, concentration 80): -5.307%
- % inhibition T4 130' 2.5 (DRC-1, concentration 2.5): -8.748%
- % inhibition T4 130' 5 (DRC-1, concentration 5): -10.3586%
- % inhibition T4 130' 10 (DRC-1, concentration 10): -7.013%
- % inhibition T4 130' 20 (DRC-1, concentration 20): -9.978%
- % inhibition T4 130' 40 (DRC-1, concentration 40): -5.652%
- % inhibition T4 130' 80 (DRC-1, concentration 80): -8.474%
- % inhibition T4 10' 2.5 (DRC-2, concentration 2.5): 4%
- % inhibition T4 10' 5 (DRC-2, concentration 5): 4.39%
- % inhibition T4 10' 10 (DRC-2, concentration 10): 6%
- % inhibition T4 10' 20 (DRC-2, concentration 20): 5.27%
- % inhibition T4 10' 40 (DRC-2, concentration 40): 12%
- % inhibition T4 10' 80 (DRC-2, concentration 80): 12%
- % inhibition T4 40' 2.5 (DRC-2, concentration 2.5): 4%
- % inhibition T4 40' 5 (DRC-2, concentration 5): 4.39%
- % inhibition T4 40' 10 (DRC-2, concentration 10): 6%
- % inhibition T4 40' 20 (DRC-2, concentration 20): 5.27%
- % inhibition T4 40' 40 (DRC-2, concentration 40): 12%
- % inhibition T4 40' 80 (DRC-2, concentration 80): 12%
- % inhibition T4 90' 2.5 (DRC-2, concentration 2.5): 4%
- % inhibition T4 90' 5 (DRC-2, concentration 5): 5%
- % inhibition T4 90' 10 (DRC-2, concentration 10): 7%
- % inhibition T4 90' 20 (DRC-2, concentration 20): 7%
- % inhibition T4 90' 40 (DRC-2, concentration 40): 11%
- % inhibition T4 90' 80 (DRC-2, concentration 80): 11%
- % inhibition T4 180' 2.5 (DRC-2, concentration 2.5): -0.169%
- % inhibition T4 180' 5 (DRC-2, concentration 5): 0.674%
- % inhibition T4 180' 10 (DRC-2, concentration 10): 3%
- % inhibition T4 180' 20 (DRC-2, concentration 20): 2%
- % inhibition T4 180' 40 (DRC-2, concentration 40): 8%
- % inhibition T4 180' 80 (DRC-2, concentration 80): 8%

SMILES: Cc1ccccc1C(=O)N1CCc2c(nc3cc(-c4ccccc4)[nH]n3c2=O)C1 [Molecule 41, Cc1ccccc1C(=O)N1CCc2c(C1)nc1n(c2=O)[nH]c(c1)c1ccccc1]
- % inhibition T4 10' (DRC-2, concentration 2.5): 10%
- % inhibition T4 10' (DRC-2, concentration 5): 13%
- % inhibition T4 10' (DRC-2, concentration 10): 5%
- % inhibition T4 10' (DRC-2, concentration 20): -10%
- % inhibition T4 10' (DRC-2, concentration 40): -26%
- % inhibition T4 10' (DRC-2, concentration 80): -46%
- % inhibition T4 40' (DRC-2, concentration 2.5): 10%
- % inhibition T4 40' (DRC-2, concentration 5): 13%
- % inhibition T4 40' (DRC-2, concentration 10): 5%
- % inhibition T4 40' (DRC-2, concentration 20): -10%
- % inhibition T4 40' (DRC-2, concentration 40): -26%
- % inhibition T4 40' (DRC-2, concentration 80): -46%
